Reference: patent US11759461B2, “Small molecule inhibitors of cancer stem cells and mesenchymal cancer types” (The Scripps Research Institute, priority 2017, dated 2023)
Where two headings read alike, the source gives them in different places.

System: FOXC2-expressing HMLER cells
Test: Cell Titer Glo viability of FOXC2-HMLER cells (high throughput screen and 10-point response)
Format: cell-based
Details: Homo sapiens, 72 hours
Procedure, shortened: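 Viability after 72 h compound exposure was measured as Cell Titer Glo luminescence. FOXC2-HMLER and parental HMLER cells, 1,000 per well in MEGM medium, were dosed 1 h after plating; screening concentration was 2 μM.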

[1] = scored relative to parent compound 2, read-out: Activity Score, inhibition of FOXC2-expressing HMLER cells by Formula II compounds
[2] = scored relative to parent compound 3, read-out: Activity Score, inhibition of FOXC2-expressing HMLER cells by Formula III compounds
[3] = scored relative to parent compound 1, read-out: Activity Score, inhibition of FOXC2-expressing HMLER cells by Formula I compounds
[4] = scored relative to parent compound 4, read-out: Activity Score, inhibition of FOXC2-expressing HMLER cells by Formula IV compounds

| Structure (SMILES) | IC50 [1] [µM] | further results |
| --- | --- | --- |
| COc1ccc2cc(CNc3ccc(C)cc3)c(=O)n(CC(=O)Nc3ccc(C)c(Cl)c3)c2c1 [Compound 2DR] | > 20 | – |
| COc1ccccc1NC(=O)Cn1c(=O)c(CNc2ccccc2)cc2ccc(C)cc21 [Compound 2DU] | > 20 | – |
| CCCCN(C)C(=O)c1cccc(-n2nnc3cccnc32)c1 [Compound 3AX] | – | IC50 [2]: > 20 µM |
| COc1ccc2cc(CNc3ccccc3)c(=O)n(CC(=O)Nc3ccccc3C)c2c1 [Compound 2HT] | > 20 | – |
| Clc1cncc(N2CCN(c3cnnc4c(Cl)cccc34)CC2)n1 [Compound 1SRAF] | – | IC50 [3]: > 20 µM |
| O=C(c1ccc(-n2nnc3cccnc32)cc1)N1CCC(Cc2ccccc2)CC1 [Compound 3AI] | – | IC50 [2]: 1 to 20 µM |
| COc1cc(NC(=O)Cn2c(=O)c(CNc3ccccc3)cc3ccc(C)cc32)cc(OC)c1 [Compound 2IF] | > 20 | – |
| Cc1ccc(C)c(N2CCN(C(=O)c3ccc(C)c(-n4nnc5cccnc54)c3)CC2)c1 [Compound 3X] | – | IC50 [2]: 1 to 20 µM |
| Cc1ccc(NCc2cc3cc4c(cc3n(CC(=O)Nc3c(C)cccc3C)c2=O)OCCO4)cc1 [Compound 2AM] | 1 to 20 | – |
| Clc1cccc2c(N3CCN(c4ccccc4)CC3)cnnc12 [Compound 1SRX] | – | IC50 [3]: > 20 µM |
| COc1cc2cc(CNc3ccccc3)c(=O)n(CC(=O)Nc3ccc(C)c(C)c3)c2cc1OC [Compound 2FE] | > 20 | – |
| COc1cc2cc(CNc3ccccc3)c(=O)n(CC(=O)Nc3ccc(C(C)C)cc3)c2cc1OC [Compound 2V] | 1 to 20 | – |
| COc1ccc2cc(CNc3ccccc3)c(=O)n(CC(=O)Nc3ccc(OC)c(OC)c3)c2c1 [Compound 2HF] | > 20 | – |
| Cc1ccc(CN2CCC(CNC(=O)c3cccc(-n4nnc5cccnc54)c3)CC2)cc1 [Compound 3T] | – | IC50 [2]: 1 to 20 µM |
| COc1ccc(NCc2cc3cc4c(cc3n(CC(=O)Nc3cc(C)cc(C)c3)c2=O)OCCO4)cc1 [Compound 2IG] | > 20 | – |
| COc1cc2cc(CNc3ccc(C)cc3)c(=O)n(CC(=O)Nc3ccc(C)c(C)c3)c2cc1OC [Compound 2DI] | > 20 | – |
| COc1ccc2cc(CNc3ccc(C)cc3)c(=O)n(CC(=O)Nc3ccc(F)cc3F)c2c1 [Compound 2DF] | > 20 | – |
| COc1ccc(NCc2cc3cc4c(cc3n(CC(=O)Nc3cccc(C)c3)c2=O)OCCO4)cc1 [Compound 2ID] | > 20 | – |
| COc1ccc(NCc2cc3ccc(C)cc3n(CC(=O)Nc3ccc(C)cc3)c2=O)cc1OC [Compound 2GY] | > 20 | – |
| COc1ccc2cc(CNc3ccccc3)c(=O)n(CC(=O)Nc3ccccc3Cl)c2c1 [Compound 2DB] | > 20 | – |

| Structure (SMILES) | IC50 [1] [µM] | further results |
| --- | --- | --- |
| COc1cc2cc(CNc3ccccc3)c(=O)n(CC(=O)Nc3ccc(Cl)cc3)c2cc1OC [Compound 2FP] | > 20 | – |
| COc1ccc2cc(CNc3ccc(OC)c(OC)c3)c(=O)n(CC(=O)Nc3cccc(C)c3)c2c1 [Compound 2FK] | > 20 | – |
| COc1ccc(-c2cc(N3CCN(S(=O)(=O)c4cnn(C(F)F)c4C)CC3)ncn2)cc1 [Compound 4Y] | – | IC50 [4]: > 20 µM |
| Cc1ccc(CN2CCC(CNC(=O)c3ccc(C)c(-n4nnc5cccnc54)c3)CC2)cc1 [Compound 3AB] | – | IC50 [2]: 1 to 20 µM |
| Cc1c(S(=O)(=O)N2CCN(c3ccc(=O)n(-c4ccc(Cl)cc4)n3)CC2)cnn1C(F)F [Compound 4AM] | – | IC50 [4]: > 20 µM |
| COc1ccc(NC(=O)Cn2c(=O)c(CNc3ccc(C)cc3)cc3cc(OC)c(OC)cc32)cc1 [Compound 2BQ] | > 20 | – |
| Cc1ccccc1-c1cc(N2CCN(S(=O)(=O)c3cnn(C(F)F)c3C)CC2)ncn1 [Compound 4B] | – | IC50 [4]: < 1 µM |
| Clc1cccc(N2CCN(c3cnnc4c(Cl)cccc34)CC2)c1Cl [Compound 1SRZ] | – | IC50 [3]: > 20 µM |
| CCc1ccc(NCc2cc3ccc(OC)cc3n(CC(=O)Nc3cc(C)cc(C)c3)c2=O)cc1 [Compound 2HQ] | > 20 | – |
| CCc1ccc(NCc2cc3ccc(OC)cc3n(CC(=O)Nc3ccc(Cl)cc3)c2=O)cc1 [Compound 2GB] | > 20 | – |
| Cc1ccc(-c2cc(N3CCN(S(=O)(=O)c4ccccc4C)CC3)ncn2)cc1 [Compound 4E] | – | IC50 [4]: < 1 µM |
| COc1ccc2cc(CNc3ccccc3)c(=O)n(CC(=O)Nc3ccc(Br)cc3)c2c1 [Compound 2BW] | > 20 | – |
| CCc1ccc(NCc2cc3ccc(OC)cc3n(CC(=O)Nc3ccccc3)c2=O)cc1 [Compound 2HA] | > 20 | – |
| Cc1c(C(=O)NCC(C)c2ccccc2)cccc1-n1nnc2cccnc21 (stereo not shown) [Compound 3BT] | – | IC50 [2]: > 20 µM |
| COc1ccc2cc(CNc3ccccc3)c(=O)n(CC(=O)Nc3cccc(C(C)=O)c3)c2c1 [Compound 2EX] | > 20 | – |
| COc1ccccc1NC(=O)Cn1c(=O)c(CNc2ccccc2)cc2cc3c(cc21)OCCO3 [Compound 2EF] | > 20 | – |
| COc1ccc2cc(CNc3ccc(C)cc3)c(=O)n(CC(=O)Nc3cccc(Cl)c3)c2c1 [Compound 2HJ] | > 20 | – |
| CCc1ccc(NC(=O)Cn2c(=O)c(CNc3ccccc3)cc3ccc(OC)cc32)cc1 [Compound 2BN] | > 20 | – |
| CC(=O)c1ccc(N2CCN(S(=O)(=O)c3c(C)nn(-c4ccc(C)cc4)c3C)CC2)cc1 [Compound 4H] | – | IC50 [4]: < 1 µM |
| COc1cc2cc(CNc3ccccc3)c(=O)n(CC(=O)Nc3ccc(F)cc3)c2cc1OC [Compound 2CG] | > 20 | – |

| Structure (SMILES) | IC50 [1] [µM] | further results |
| --- | --- | --- |
| Cc1c(S(=O)(=O)N2CCN(c3cc(-c4ccccc4)ncn3)CC2)cnn1C(F)F [Compound 4X] | – | IC50 [4]: > 20 µM |
| O=C(c1cccc(-n2nnc3cccnc32)c1)N1CCCC1 [Compound 3AV] | – | IC50 [2]: > 20 µM |
| COc1ccc2cc(CNc3ccc(OC)c(OC)c3)c(=O)n(CC(=O)Nc3ccccc3C)c2c1 [Compound 2AW] | > 20 | – |
| CCc1ccc(NCc2cc3cc(OC)c(OC)cc3n(CC(=O)Nc3cccc(C)c3)c2=O)cc1 [Compound 2DE] | > 20 | – |
| COc1ccc2cc(CNc3ccc(C)cc3)c(=O)n(CC(=O)Nc3ccc(C(C)=O)cc3)c2c1 [Compound 2HV] | > 20 | – |
| Cc1ccc(N2CCN(c3nccn4nc(-c5ccccc5)cc34)CC2)cc1 [Compound 1C] | – | IC50 [3]: 1 to 20 µM |
| COc1ccc2cc(CNc3ccc(C)cc3)c(=O)n(CC(=O)Nc3ccc4c(c3)OCCO4)c2c1 [Compound 2CE] | > 20 | – |
| Cc1cccc(N2CCN(C(=O)c3ccc(-n4nnc5cccnc54)cc3)CC2C)c1 (stereo not shown) [Compound 3I] | – | IC50 [2]: 1 to 20 µM |
| Cc1c(S(=O)(=O)N2CCN(c3cnnc4c(Cl)cccc34)CC2)cnn1C(F)F [Compound 1SRAM] | – | IC50 [3]: > 20 µM |
| COc1ccc2cc(CNc3ccc(C)cc3)c(=O)n(CC(=O)Nc3cc(C)ccc3C)c2c1 [Compound 2U] | 1 to 20 | – |
| COc1cccc(NC(=O)Cn2c(=O)c(CNc3ccccc3)cc3cc(OC)c(OC)cc32)c1 [Compound 2CN] | > 20 | – |
| COc1ccc2cc(CNc3ccccc3)c(=O)n(CC(=O)Nc3cccc(C(F)(F)F)c3)c2c1 [Compound 2EE] | > 20 | – |
| Cc1cccc(CNC(=O)c2ccc(C)c(-n3nnc4cccnc43)c2)c1 [Compound 3BF] | – | IC50 [2]: > 20 µM |
| COc1ccc2cc(CNc3ccccc3)c(=O)n(CC(=O)NCc3ccccc3)c2c1 [Compound 2AU] | > 20 | – |
| COc1ccc(NCc2cc3ccc(OC)cc3n(CC(=O)Nc3cccc(OC)c3)c2=O)cc1 [Compound 2IC] | > 20 | – |
| Cc1c(C(=O)NCCCN(C)Cc2ccccc2)cccc1-n1nnc2cccnc21 [Compound 3BX] | – | IC50 [2]: > 20 µM |
| Clc1nccc(N2CCN(c3cnnc4c(Cl)cccc34)CC2)n1 [Compound 1SRAE] | – | IC50 [3]: > 20 µM |
| CN(Cc1ccccc1)C(=O)c1ccc(-n2nnc3cccnc32)cc1 [Compound 3AL] | – | IC50 [2]: > 20 µM |
